“And” between values parts separate entries of the source, which are not always exact repeats. Identical values can stand only once.
Experiments:
[1] = Inhibition of baboon liver mitochondrial monoamine oxidase B using 30 to 120 uM of MMTP by spectrophotometry; design: species or system Papio
[2] = Inhibition of baboon liver mitochondrial monoamine oxidase B using 50 uM of MMTP by spectrophotometry; design: species or system Papio
Papio [3] = assay: Inhibition of baboon liver mitochondrial monoamine oxidase B at 30 uM by spectrophotometry
Adenosine receptor A2a = Adenosine receptor A2a (Rattus norvegicus, UniProt P30543)
Description: Displacement of [3H]NECA from Sprague-Dawley rat adenosine A2A receptor by scintillation counting

Papio [4] = assay: Inhibition of baboon liver mitochondrial monoamine oxidase B at 1000 uM by spectrophotometry

Chain of Adenosine receptor A2a (P30543 whole entry): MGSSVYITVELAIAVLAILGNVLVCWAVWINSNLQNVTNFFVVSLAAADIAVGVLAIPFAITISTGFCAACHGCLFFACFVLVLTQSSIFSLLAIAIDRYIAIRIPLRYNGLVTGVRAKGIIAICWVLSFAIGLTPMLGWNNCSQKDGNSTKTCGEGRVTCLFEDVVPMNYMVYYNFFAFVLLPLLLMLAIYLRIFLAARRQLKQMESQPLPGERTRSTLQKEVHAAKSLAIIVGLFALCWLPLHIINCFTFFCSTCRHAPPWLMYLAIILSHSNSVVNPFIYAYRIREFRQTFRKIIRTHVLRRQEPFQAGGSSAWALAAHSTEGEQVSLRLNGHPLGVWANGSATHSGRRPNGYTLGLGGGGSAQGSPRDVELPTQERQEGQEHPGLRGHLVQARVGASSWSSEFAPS

SMILES | Ki [1] | IC50 [2] | Ki [2] | Ki (Adenosine receptor A2a) | inhibition (Papio [4]) | inhibition (Papio [3])
Cn1c(=O)c2c(nc(/C=C/c3cccc(Br)c3)n2C)n(C)c1=O | 0.0627 µM | 0.107 µM | 0.0618 µM | – | – | –
Cn1c(=O)c2c(nc(/C=C/c3ccc(Cl)c(Cl)c3)n2C)n(C)c1=O | 0.0189 µM | 0.0284 µM and 0.0164 µM | – | – | – | –
Cn1c(=O)c2c(nc(/C=C/C=C/c3ccccc3)n2C)n(C)c1=O | 0.149 µM | 0.383 µM | 0.221 µM | 0.153 µM | – | –
CCn1c(/C=C/C=C/c2ccccc2)nc2c1c(=O)n(C)c(=O)n2C | 1.71 µM | 2.37 µM | 1.37 µM | 0.0135 µM | – | –
Cn1c(=O)c2c(nc(/C=C/C=C/c3cccc(Br)c3)n2C)n(C)c1=O | 0.0172 µM | 0.0379 µM | 0.0219 µM | 0.0591 µM | – | –
Cn1c(=O)c2c(nc(-c3ccccc3)n2C)n(C)c1=O | 86.2 µM | – | – | – | – | –
CCn1c(=O)c2c(nc(/C=C/C=C/c3ccccc3)n2C)n(CC)c1=O | – | – | – | 0.00274 µM | – | 32.7%
Cn1c(=O)c2c(nc(Cc3ccccc3)n2C)n(C)c1=O | – | – | – | – | 18% | –

Continued, in another order:

Ki [1] | IC50 [2] | Ki [2] | Ki (Adenosine receptor A2a) | inhibition (Papio [4]) | SMILES | inhibition (Papio [3])
54.6 µM | – | – | – | – | Cn1c(=O)c2c(nc(Cc3cccc(Cl)c3)n2C)n(C)c1=O | –
– | – | – | 0.00773 µM | – | CCn1c(=O)c2c(nc(/C=C/C=C/c3ccccc3)n2CC)n(CC)c1=O | 14.6%
36 µM | – | – | – | – | Cn1c(=O)c2c(nc(-c3cccc(Cl)c3)n2C)n(C)c1=O | –
– | – | – | – | 24% | Cn1c(=O)c2c(nc(-c3cccc(C(F)(F)F)c3)n2C)n(C)c1=O | –
0.0464 µM | 0.089 µM | 0.0514 µM | 0.114 µM | – | Cn1c(=O)c2c(nc(/C=C/C=C/c3cccc(F)c3)n2C)n(C)c1=O | –
97.6 µM | – | – | – | – | Cn1c(=O)c2c(nc(Cc3cccc(C(F)(F)F)c3)n2C)n(C)c1=O | –
0.0421 µM | 0.0963 µM | 0.0556 µM | 0.104 µM | – | Cn1c(=O)c2c(nc(/C=C/C=C/c3cccc(Cl)c3)n2C)n(C)c1=O | –

— ChEMBL document CHEMBL1144166 (Bioorg Med Chem, 2008)
